Data on four compounds can be found in PMC9599461, “Stereoselectivity in the Membrane Transport of Phenylethylamine Derivatives by Human Monoamine Transporters and Organic Cation Transporters 1, 2, and 3” (Biomolecules, 2022).

One series has as its target DAT (Homo sapiens, UniProt Q01959). The series can be described thus: Stereoselective uptake into DAT-overexpressing HEK293 cells.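 For all read-outs here: intracellular accumulation measured by chiral HPLC-MS/MS in stably transfected HEK293 cells, normalized to total protein.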 Conditions: for Clint ± SEM: quotient of vmax over Km; for Vmax ± SEM / Km: HEK293 cells overexpressing human DAT, racemic substrate, two minutes; for Vmax ± SEM: net uptake; for Km: read-out: Km ± SEM, net uptake minus empty vector control.

In a further series the target is T1, OCT2 (Homo sapiens, UniProt O15244).
T1 sequence (O15244 1-555 S270A): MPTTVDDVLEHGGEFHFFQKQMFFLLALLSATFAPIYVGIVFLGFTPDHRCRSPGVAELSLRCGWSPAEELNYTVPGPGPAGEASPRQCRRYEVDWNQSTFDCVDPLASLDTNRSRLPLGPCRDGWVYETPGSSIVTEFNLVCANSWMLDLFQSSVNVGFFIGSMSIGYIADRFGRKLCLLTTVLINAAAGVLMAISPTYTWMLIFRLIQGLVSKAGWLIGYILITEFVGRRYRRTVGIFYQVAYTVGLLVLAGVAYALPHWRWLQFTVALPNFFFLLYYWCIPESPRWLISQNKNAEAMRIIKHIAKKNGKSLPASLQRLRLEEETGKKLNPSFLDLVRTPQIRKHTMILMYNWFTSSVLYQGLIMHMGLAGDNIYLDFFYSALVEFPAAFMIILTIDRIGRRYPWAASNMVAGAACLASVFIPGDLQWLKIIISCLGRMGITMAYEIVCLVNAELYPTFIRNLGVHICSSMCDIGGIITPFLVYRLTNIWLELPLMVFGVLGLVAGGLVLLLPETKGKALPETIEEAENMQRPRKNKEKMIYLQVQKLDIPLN
The series can be described thus: Stereoselective uptake into OCT2 (wild-type)-overexpressing HEK293 cells. As to conditions: for Clint ± SEM / selectivity ratio at 2 min: OCT2; for Clint ± SEM: quotient of vmax over Km; for selectivity ratio at 2 min: human, ratio between enantiomers; for Vmax ± SEM / Km: HEK293 cells overexpressing human OCT2, racemic substrate, two minutes; for Vmax ± SEM: net uptake; for Km: read-out: Km ± SEM, net uptake minus empty vector control.

The next series concerns the target T2, OCT3 (Homo sapiens, UniProt O75751).
T2 sequence (O75751 1-556): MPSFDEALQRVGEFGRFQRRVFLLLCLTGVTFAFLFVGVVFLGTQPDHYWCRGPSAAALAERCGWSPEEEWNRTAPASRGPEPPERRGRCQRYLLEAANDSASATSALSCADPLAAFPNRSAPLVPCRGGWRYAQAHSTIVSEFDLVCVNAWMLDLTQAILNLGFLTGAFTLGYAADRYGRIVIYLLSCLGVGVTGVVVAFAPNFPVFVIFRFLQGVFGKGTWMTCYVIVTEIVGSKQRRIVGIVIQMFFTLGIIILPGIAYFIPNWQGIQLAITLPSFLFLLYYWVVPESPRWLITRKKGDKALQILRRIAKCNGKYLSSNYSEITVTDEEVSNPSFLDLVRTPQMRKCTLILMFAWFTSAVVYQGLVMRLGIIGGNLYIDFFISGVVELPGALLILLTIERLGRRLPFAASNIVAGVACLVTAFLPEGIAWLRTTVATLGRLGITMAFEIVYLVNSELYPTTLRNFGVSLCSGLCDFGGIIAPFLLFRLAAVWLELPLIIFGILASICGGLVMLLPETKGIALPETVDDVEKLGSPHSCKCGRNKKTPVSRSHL
The experiment in a line: Stereoselective uptake into OCT3-overexpressing HEK293 cells.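 For all read-outs here: intracellular accumulation in HEK293 cells measured by chiral HPLC-MS/MS after a 2 min substrate exposure at 37 °C, uptake normalized to total protein (bicinchoninic acid assay).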 Conditions: for Clint ± SEM / Stereoselectivity Vmax / Stereoselectivity Km / Stereoselectivity ClInt: OCT3; for Clint ± SEM: quotient of vmax over Km; for Stereoselectivity Vmax / Stereoselectivity Km / Stereoselectivity ClInt: ratio between enantiomers; for Stereoselectivity Vmax: given as for (R) or for 1; for Stereoselectivity Km: given as for (R) or for 1 (first-eluting); for Vmax ± SEM / Km: HEK293 cells overexpressing human OCT3, racemic substrate, two minutes; for Vmax ± SEM: net uptake; for Km: read-out: Km ± SEM, net uptake minus empty vector control.

The next series concerns the target SERT (Homo sapiens, UniProt P31645). The series can be described thus: Stereoselective uptake into SERT-overexpressing HEK293 cells.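 Note: uptake into HEK293 cells stably expressing human SERT over 2 min, enantiomers measured in cell lysate by chiral HPLC-MS/MS, normalized to total protein.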 As to conditions: SERT.
For the next series, the target named is NET (Homo sapiens, UniProt P23975). The series can be described thus: Stereoselective uptake into NET-overexpressing HEK293 cells.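 For all read-outs here: intracellular enantiomers quantified in cell lysates by chiral HPLC-MS/MS after a 2 min substrate incubation, with uptake normalized to total cellular protein.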 Conditions: for Clint ± SEM / Stereoselectivity Vmax / Stereoselectivity Km / Stereoselectivity ClInt: NET; for Clint ± SEM: quotient of vmax over Km; for Stereoselectivity Vmax / Stereoselectivity Km / Stereoselectivity ClInt: ratio between enantiomers; for Stereoselectivity Km: given as for (R) or for 1 (first-eluting); for Vmax ± SEM / Km: HEK293 cells overexpressing human NET, racemic substrate, two minutes; for Vmax ± SEM: net uptake; for Km: read-out: Km ± SEM, net uptake minus empty vector control.

The target of the next series is T3, OCT1 (Homo sapiens, UniProt O15245).
T3 sequence (O15245 1-554): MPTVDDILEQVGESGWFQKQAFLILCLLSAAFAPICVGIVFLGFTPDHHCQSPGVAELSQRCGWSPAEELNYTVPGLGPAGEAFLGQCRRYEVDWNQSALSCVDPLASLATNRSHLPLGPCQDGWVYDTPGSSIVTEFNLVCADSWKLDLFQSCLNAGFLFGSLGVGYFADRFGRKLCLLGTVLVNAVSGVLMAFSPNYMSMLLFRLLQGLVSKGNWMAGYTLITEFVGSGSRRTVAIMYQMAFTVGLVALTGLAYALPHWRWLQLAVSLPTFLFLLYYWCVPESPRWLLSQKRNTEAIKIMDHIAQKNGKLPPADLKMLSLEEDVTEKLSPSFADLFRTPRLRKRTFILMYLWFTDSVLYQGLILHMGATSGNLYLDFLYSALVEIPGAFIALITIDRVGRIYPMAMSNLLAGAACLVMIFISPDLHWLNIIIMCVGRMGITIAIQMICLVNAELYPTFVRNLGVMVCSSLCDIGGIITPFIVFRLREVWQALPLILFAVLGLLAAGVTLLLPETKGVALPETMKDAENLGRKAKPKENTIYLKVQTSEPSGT
The series can be described thus: Stereoselective uptake into OCT1-overexpressing HEK293 cells.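 For all read-outs here: enantiomers quantified inside cells by chiral HPLC-MS/MS, uptake normalized to total protein from bicinchoninic acid assay, substrates applied in HBSS+ buffer.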 As to conditions: for Clint ± SEM: quotient of vmax over Km; for selectivity ratio at 2 min: human; for Vmax ± SEM / Km: HEK293 cells overexpressing human OCT1, racemic substrate, two minutes; for Vmax ± SEM: net uptake; for Km: read-out: Km ± SEM, net uptake minus empty vector control.

The test system of a further series is OCT2 A270S variant. The experiment in a line: Stereoselective uptake into OCT2 A270S variant-overexpressing HEK293 cells.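 Note: uptake into HEK293 cells stably overexpressing human OCT2 variants, intracellular enantiomers quantified by chiral HPLC-MS/MS and normalized to total protein.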 As to conditions: OCT2 wild-type versus A270S, 100 μM racemic substance, two minutes, given as for WT.
Setting [1] is: ratio between enantiomers, given as for (S) or for 2.

Sequence of SERT (P31645 whole entry): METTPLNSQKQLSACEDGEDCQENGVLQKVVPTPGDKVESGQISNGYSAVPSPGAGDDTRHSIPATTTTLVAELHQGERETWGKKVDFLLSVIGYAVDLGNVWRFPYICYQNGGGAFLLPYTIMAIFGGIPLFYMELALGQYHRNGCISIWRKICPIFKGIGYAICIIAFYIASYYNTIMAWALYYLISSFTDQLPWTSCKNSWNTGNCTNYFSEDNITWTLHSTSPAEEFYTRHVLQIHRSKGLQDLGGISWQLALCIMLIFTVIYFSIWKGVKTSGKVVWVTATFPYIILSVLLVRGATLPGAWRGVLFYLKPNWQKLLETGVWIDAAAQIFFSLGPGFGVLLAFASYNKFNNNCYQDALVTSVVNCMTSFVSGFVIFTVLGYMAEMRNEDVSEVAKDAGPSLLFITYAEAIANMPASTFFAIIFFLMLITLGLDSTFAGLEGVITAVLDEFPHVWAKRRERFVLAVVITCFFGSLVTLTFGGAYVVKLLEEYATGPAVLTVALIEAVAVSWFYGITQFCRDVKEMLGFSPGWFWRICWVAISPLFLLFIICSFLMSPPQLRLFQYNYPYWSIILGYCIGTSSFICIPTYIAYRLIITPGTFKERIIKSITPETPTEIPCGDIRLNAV
Sequence of DAT (Q01959 whole entry): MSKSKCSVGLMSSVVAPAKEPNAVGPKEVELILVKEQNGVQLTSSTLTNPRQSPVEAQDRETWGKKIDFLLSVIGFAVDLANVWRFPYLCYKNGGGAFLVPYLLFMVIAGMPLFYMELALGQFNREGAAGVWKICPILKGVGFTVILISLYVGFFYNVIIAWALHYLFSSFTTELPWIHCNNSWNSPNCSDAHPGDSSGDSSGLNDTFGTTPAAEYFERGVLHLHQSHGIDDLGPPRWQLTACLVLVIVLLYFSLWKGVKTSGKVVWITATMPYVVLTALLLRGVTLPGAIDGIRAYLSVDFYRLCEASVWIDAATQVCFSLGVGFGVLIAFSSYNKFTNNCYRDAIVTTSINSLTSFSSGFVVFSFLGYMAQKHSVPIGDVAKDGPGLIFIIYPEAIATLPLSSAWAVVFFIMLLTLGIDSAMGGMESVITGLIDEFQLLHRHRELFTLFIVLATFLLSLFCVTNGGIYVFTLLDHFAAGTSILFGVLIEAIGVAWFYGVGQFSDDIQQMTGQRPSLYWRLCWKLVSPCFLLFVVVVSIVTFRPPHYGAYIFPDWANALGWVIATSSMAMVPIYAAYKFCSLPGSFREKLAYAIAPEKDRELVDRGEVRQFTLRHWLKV
Sequence of NET (P23975 whole entry): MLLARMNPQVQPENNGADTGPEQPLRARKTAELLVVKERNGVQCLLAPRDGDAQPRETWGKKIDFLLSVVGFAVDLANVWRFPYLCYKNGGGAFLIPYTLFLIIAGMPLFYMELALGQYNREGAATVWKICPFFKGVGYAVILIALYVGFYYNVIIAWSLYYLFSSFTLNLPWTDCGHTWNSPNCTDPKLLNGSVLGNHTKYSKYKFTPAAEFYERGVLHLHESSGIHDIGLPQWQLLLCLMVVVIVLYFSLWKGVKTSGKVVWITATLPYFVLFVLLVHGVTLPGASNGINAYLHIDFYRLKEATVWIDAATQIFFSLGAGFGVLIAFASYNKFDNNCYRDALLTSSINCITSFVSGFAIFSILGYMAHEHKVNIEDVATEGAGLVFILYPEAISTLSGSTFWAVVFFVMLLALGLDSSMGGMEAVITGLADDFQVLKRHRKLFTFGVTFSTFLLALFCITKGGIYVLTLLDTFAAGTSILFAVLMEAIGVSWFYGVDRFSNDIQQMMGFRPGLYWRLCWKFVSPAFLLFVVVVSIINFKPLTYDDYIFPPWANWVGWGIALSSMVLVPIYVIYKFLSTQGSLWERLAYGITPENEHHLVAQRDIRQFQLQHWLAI

In the case of `COc1cc(C(O)CN)ccc1O` (single isomer, unassigned) [Normetanephrine-2, Normetanephrine], the Saturable net uptake entry at DAT (DAT, result in words) is recorded as “No saturable net uptake”. Further, the “Clint ± SEM” value is on record as 5.92 mL × g Protein^−1 × min^−1 at OCT2; 21.6 mL × g Protein^−1 × min^−1 on OCT3; 4.05 mL × g Protein^−1 × min^−1 on SERT (quotient of vmax over Km); 3.47 mL × g Protein^−1 × min^−1 at NET; 2.65 mL × g Protein^−1 × min^−1 on OCT1 (OCT1). In addition, the selectivity ratio at 2 min at OCT2 (Stereoselectivity ClInt, given as for (R) or for 1) worked out at 1.56; at OCT2 (Stereoselectivity Km, given as for (R) or for 1 (first-eluting)), 1.32; at OCT2 (Stereoselectivity Vmax, given as for (S) or for 2), 2.06; on OCT1 (Stereoselectivity ClInt, OCT1, ratio between enantiomers, given as for (S) or for 2), 1.08; on OCT1 (Stereoselectivity Km, OCT1, ratio between enantiomers, given as for (R) or for 1 (first-eluting)), 1.59; on OCT1 (Stereoselectivity Vmax, OCT1, ratio between enantiomers, given as for (R) or for 1) it was 1.47. For the same compound, the “Stereoselectivity Vmax” value on OCT3 turned out to be 1.09 fold; on SERT (setting [1]), 1.67 fold; on NET (given as for (R) or for 1), 1.06 fold. The “Stereoselectivity Km” value at OCT3 turned out to be 1.22 fold; on SERT (ratio between enantiomers, given as for (R) or for 1 (first-eluting)), 1.08 fold; at NET it was 1.35 fold. Besides, the results for the “Stereoselectivity ClInt” value at OCT3 (given as for (S) or for 2), on SERT (setting [1]) and on NET (given as for (S) or for 2) were 1.12 fold, 1.28 fold and 1.28 fold, respectively. This compound yielded a Transporter selectivity in the series with OCT2 A270S variant (listed as (S)-Normetanephrine) of 1.08 fold.
As a reminder, the Km is the concentration of substrate that gives half-maximal velocity. For the compound `NC[C@@H](O)c1ccccc1` [(S)-Bisnorephedrine], the “Clint ± SEM” value is listed as 6.15 mL × g Protein^−1 × min^−1 at DAT (DAT); 10.0 mL × g Protein^−1 × min^−1 on OCT2; 3.85 mL × g Protein^−1 × min^−1 at OCT3; 57.4 mL × g Protein^−1 × min^−1 on NET; 1.13 mL × g Protein^−1 × min^−1 on OCT1 (OCT1). Besides, the “Stereoselectivity Vmax” value stood at 1.17 fold at DAT (DAT, ratio between enantiomers, given as for (S) or for 2); 1.13 fold at OCT3; 1.23 fold on NET (given as for (S) or for 2); 1.19 fold at OCT1 (OCT1, ratio between enantiomers, given as for (R) or for 1). Further, the “Stereoselectivity Km” value at DAT (DAT, ratio between enantiomers, given as for (S) or for 2 (second-eluting)) stood at 1.18 fold; at OCT3, 1.08 fold; at NET, 1.01 fold; on OCT1 (OCT1, ratio between enantiomers, given as for (R) or for 1 (first-eluting)), 1.15 fold. For the same compound, the “Stereoselectivity ClInt” value at DAT (DAT, ratio between enantiomers, printed as for (R) or for 1 (also 1.00-fold for (R/S))) came out at 1.01 fold; at OCT3 (given as for (R) or for 1 (also 1.00-fold for 1/2)) it was 1.04 fold; on NET (given as for (S) or for 2), 1.24 fold; on OCT1 (OCT1, ratio between enantiomers, given as for (R) or for 1 (also 1.00-fold for 1/2)) it was 1.03 fold. Besides, the “Vmax ± SEM” value at DAT is 31.7 pmol × mg Protein^−1 × min^−1; at OCT2, 602 pmol × mg Protein^−1 × min^−1; on OCT3, 589 pmol × mg Protein^−1 × min^−1; at NET, 11.7 pmol × mg Protein^−1 × min^−1; at OCT1, 184 pmol × mg Protein^−1 × min^−1. Also, the Km at DAT worked out at 5.16 µM; on OCT3 it was 153 µM; at NET, 0.204 µM; on OCT1, 162 µM. At SERT (result in words), the Saturable net uptake entry is listed as “No saturable net uptake”. Also, in the series on OCT2 A270S variant, the Transporter selectivity is on record as 1.24 fold.
In the case of (R)-Epinephrine, the “Clint ± SEM” value is 64.7 ± 26.7 mL × g Protein^−1 × min^−1 on DAT (DAT); 14.2 ± 4.0 mL × g Protein^−1 × min^−1 at OCT2; 20.9 ± 6.7 mL × g Protein^−1 × min^−1 on OCT3; 91.7 ± 21.3 mL × g Protein^−1 × min^−1 on NET; 4.06 ± 1.37 mL × g Protein^−1 × min^−1 on OCT1 (OCT1). Further, the Km at DAT turned out to be 34 ± 11.6 µM; on OCT2, 513 ± 110 µM; on OCT3, 466 ± 116 µM; on NET, 11.2 ± 2.2 µM; on OCT1, 596 ± 155 µM. Moreover, the “Vmax ± SEM” value at OCT2 was 7277 ± 483 pmol × mg Protein^−1 × min^−1; on OCT3, 9742 ± 698 pmol × mg Protein^−1 × min^−1; at NET, 1027 ± 37 pmol × mg Protein^−1 × min^−1; at OCT1, 2419 ± 189 pmol × mg Protein^−1 × min^−1.
For the compound `CNC[C@@H](O)c1ccc(O)c(O)c1` [(S)-Epinephrine], the “Clint ± SEM” value is given as 37.9 ± 14.8 mL × g Protein^−1 × min^−1 at DAT (DAT), 6.83 ± 2.57 mL × g Protein^−1 × min^−1 on OCT2 and 11.7 ± 4.9 mL × g Protein^−1 × min^−1 on OCT3. The “Vmax ± SEM” value at DAT is reported as 1226 ± 90 pmol × mg Protein^−1 × min^−1; at OCT2 it was 3993 ± 360 pmol × mg Protein^−1 × min^−1; on OCT3, 5336 ± 502 pmol × mg Protein^−1 × min^−1; on NET it was 557 ± 22 pmol × mg Protein^−1 × min^−1; at OCT1, 2514 ± 266 pmol × mg Protein^−1 × min^−1. Also, the Km on OCT2 turned out to be 585 ± 167 µM; at OCT3, 455 ± 149 µM; on NET it was 8.52 ± 1.91 µM; on OCT1, 671 ± 230 µM.
